Seven compounds from patent US8865656B2, “Beta-hairpin peptidomimetics having CXCR4 antagonizing activity” (Polyphor AG, priority 2009, dated 2014) can be followed below.

As usually defined, the GI50 is the concentration at which growth is held to half of that of the control. The IC50 is the concentration needed to halve the response being measured.

Where two headings read alike, the source gives them in different places. Starred links: 1 amine or outer side, 2 acyl side, 3 side chain; linkers in the order of their positions; H or OH if unused. Positions of bridges follow the written chain, without caps; N, C: chain ends. Non-standard residues stand in square brackets, D forms with d. Residues, ends and D or L forms follow the SMILES beside them. X1 = O=C(C(O)CCN[*:1])[*:2]; Dab = NCC[C@H](N)C(=O)O A value given as a limit tells only on which side of the number the result lay.

A short description of data set [1]: Plasma stability in mouse plasma. Here is the method:
(§1) The stability of the peptides in human and mouse plasma was determined by applying the following method: 315 μL/deep well of freshly thawed human plasma (Basler Blutspende-dienst) and mouse plasma (Harlan Sera-Lab, UK), respectively, were spiked with 35 μL/well of compound in PBS (100 μM, triplicate) and incubated at 37° C. […] Following shaking for 2 min the occurred suspensions were filtrated by vacuum and finally, 100 μL of each filtrate were transferred to a propylene microtiter plate, and analyzed by LC/MS as follows: Column: Waters, XBridge C18, mobile phases: (A) water+0.1% formic acid and (B) acetonitrile/water, 95/5 (v/v)+0.1% formic acid, gradient: 5%-100% (B) in 2 minutes, electrospray ionization, MRM detection (triple quadrupole). The peak areas were determined and triplicate values are averaged. The stability is expressed in percent of the initial value at t=0. (tx/to×100). By using the TREND function of EXCEL (Microsoft Office 2003) T1/2 were determined.

A short description of data set [2]: in vitro. In kind it is cell-based. How it is done:
(§2) The cytotoxicity of the depsipeptides to HELA cells (Acc57) and COS-7 cells (CRL-1651) was determined using the MTT reduction assay (T. Mossman, J. Immunol. Meth. 1983, 65, 55-63; M. V. Berridge, A. S. Tan, Arch. Biochem. Biophys. 1993, 303, 474-482). Briefly, the method was as follows: 7000 HELA cells/well and 4500 COS-7 cells/well were seeded and grown in 96-well microtiter plates for 24 h at 37° C. at 5% CO2. Thereafter, time zero (Tz) was determined by MTT reduction (see below). The supernatant of the remaining wells was discarded, and fresh medium and compounds in serial dilutions (12.5, 25 and 50 μM, triplicates) were pipetted into the wells. After incubation of the cells for 48 h at 37° C. at 5% CO2 the supernatant was discarded again and 100 μL MTT reagent (0.5 mg/mL in RPMI1640 and DMEM, respectively)/well was added. Following incubation at 37° C. for 2 h the media were aspirated and the cells were spiked (100 μL isopropanol/well). The absorbance of the solubilized formazan was measured at 595 nm (OD595peptide). For each concentration averages were calculated from triplicates. The percentage of growth was calculated as follows: (OD595peptide-OD595Tz-OD595Empty well)/(OD595Tz-OD595Empty well)×100%. The GI50 (Growth Inhibition) concentrations were calculated for each depsipeptide by using a trend line function for the concentrations (50, 25, 12.5 and 0 μM), the corresponding percentages and the value 50, (=TREND (C50:C0, %50:%0, 50).

The test system of data set [3] is human red blood cells (hRBC). Conditions: red cells of human, 1 h. How it is done: The peptides were tested for their hemolytic activity against human red blood cells (hRBC). Fresh hRBC were washed three times with phosphate buffered saline (PBS) and centrifuged for 10 min at 2000×g. Compounds (100 μM) were incubated with 20% hRBC (v/v) for 1 h at 37° C. The final erythrocyte concentration was approximately 0.9×10^9 cells/mL. A value of 0% and 100% cell lyses, respectively, was determined by incubation of hRBC in the presence of PBS alone and 0.1% Triton X-100 in H2O, respectively. The samples were centrifuged, the supernatants were 20-fold diluted in PBS buffer and the optical densities (OD) were measured at 540 nm.
Percent hemolysis was calculated as follows: (OD540peptide/OD540H2O)×100%.

A short description of data set [4]: Plasma stability in human plasma. Here is the method: as §1
Data set [5] can be described thus: in vitro. In kind it is cell-based. How it is done:
as §2
This is another data set of the same source.

The target of data set [6] is T1, human CXCR4 (Homo sapiens, UniProt P61073).
T1 construct: expressed in transfected cells; host or cells: mouse pre-B cell line 300-19
The experiment in a line: Ca2+-assay: CXCR4-antagonizing activity (SDF-1 induced calcium mobilization). It counts as cell-based. Conditions: mouse pre-B cell line 300-19 stably transfected with human CXCR4, read-out: IC50% [nM] ± SD, CXCR4 receptor. From the text: 2.3. Ca^2+-Assay: CXCR4-Antagonizing Activity of the Peptides
Increases in intracellular calcium were monitored using a Flexstation 384 (Molecular Devices, Sunnyvale, Calif.) to assay the depsipeptides for CXCR4 antagonism in a mouse pre-B cell line 300-19 stably transfected with human CXCR4 (E. Oberlin, A. Amara, F. Bachelerie, C. Bessia, J.-L. Virelizier, F. Arenzana-Seisdedos, O. Schwartz, J.-M. Heard, I. Clark-Lewis, D. F. Legler, M. Loetscher, M. Baggiolini, B. Moser, Nature 1996, 382, 833-835; M. Loetscher, T. Geiser, T. O'Reilly, R. Zwalen, M. Baggiolini, B. Moser, J. Biol. Chem. 1994, 269, 232-237; M. D'Apuuo, A. Rolink, M. Loetscher, J. A. Hoxie, I. Clark-Lewis, F. Melchors, M. Baggiolini, B. Moser, Eur. J. Immunol. 1997, 27, 1788-1793). The cells were batch loaded with the Calcium 4 Assay kit (Molecular Devices) in assay buffer (Hanks Balanced salt solution [HBSS], 20 mM HEPES, pH 7.4, 0.1% BSA) for 1 h at room temperature and labeled cells were dispensed into black 96 well assays plates (Costar No. 3603). Calcium mobilization induced by stromal-derived factor-1 (SDF-1) was measured in the Flexstation 384 (excitation: 485 nm; emission: 525 nm) for 90 seconds. Antagonist activity of peptides was determined by spiking the cells with compounds prior to SDF-1 addition. Dose response curves (compound concentration versus % maximum response for SDF-1) were determined for each antagonist and IC50 values were calculated by fitting the data to a four parameter logistic equation using SoftmaxPro 4.8 (Molecular Devices).
Background: A change in cytosolic calcium serves as a functional read-out for many receptors and channels.

Where [7] appears, read: mouse plasma, 37° C., sampling up to 240 min.
[8] abbreviates: human plasma, 37° C., sampling up to 240 min.

T1 sequence (P61073 whole entry): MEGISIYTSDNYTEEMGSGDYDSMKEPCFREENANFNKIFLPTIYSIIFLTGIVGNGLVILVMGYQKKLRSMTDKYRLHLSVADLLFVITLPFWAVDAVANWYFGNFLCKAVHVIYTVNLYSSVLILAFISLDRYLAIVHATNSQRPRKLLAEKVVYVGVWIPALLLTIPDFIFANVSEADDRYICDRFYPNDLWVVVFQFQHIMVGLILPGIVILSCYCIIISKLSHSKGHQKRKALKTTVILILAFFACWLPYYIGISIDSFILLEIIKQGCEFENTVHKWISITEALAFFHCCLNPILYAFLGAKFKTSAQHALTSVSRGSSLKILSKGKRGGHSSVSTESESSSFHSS

In the case of `C[C@@H]1NC(=O)[C@H](Cc2c[nH]cn2)NC(=O)[C@H](Cc2ccc(O)cc2)NC(=O)[C@@H]2CCCN2C(=O)[C@@H](CC2CCCCC2)NC(=O)[C@H](CCCCN)NC(=O)[C@H](CCC(N)=O)NC(=O)[C@H](Cc2ccc(O)cc2)NC(=O)[C@@H]2CSSC[C@H](NC1=O)C(=O)N[C@@H](CO)C(=O)N[C@@H](C)C(=O)N1CCC[C@@H]1C(=O)N[C@@H](CCN)C(=O)N[C@@H](CCCNC(=N)N)C(=O)N[C@@H](Cc1ccc(O)cc1)C(=O)N2` [Ex. 1], in data set [1] (setting [7]), the “Plasmastability mouse pl. T1/2” value is 4 h. Besides, the GI50 in data set [2] (African green monkey) and in data set [5] (human) was over 50 µM throughout. In addition, the “Hemolysis at 100 μM” value in data set [3] is 0%. The “Plasmastability human pl. T1/2” value in data set [4] (setting [8]) is 4 h. In data set [6], the IC50 is 1.3 ± 0.4 nM.

Take `C[C@@H]1NC(=O)[C@H](Cc2c[nH]cn2)NC(=O)[C@H](Cc2ccc(O)cc2)NC(=O)[C@@H]2CCCN2C(=O)[C@H]2CCCN2C(=O)[C@H](CCCCN)NC(=O)[C@H](CCC(N)=O)NC(=O)[C@H](Cc2ccc(O)cc2)NC(=O)[C@@H]2CSSC[C@H](NC1=O)C(=O)NCCC(O)C(=O)N[C@@H](C)C(=O)N1CCC[C@@H]1C(=O)N[C@@H](CCN)C(=O)N[C@@H](CCCNC(=N)N)C(=O)N[C@@H](Cc1ccc(O)cc1)C(=O)N2` (stereo partly drawn) [compound 19] (cyclo(YHAC[X1]A[dP][Dab]RYCYQK[dP]P); disulfide 4-11): in data set [1] (mouse, plasma), the “Plasmastability mouse pl. T1/2” value came out at 4 h. Besides, the GI50 in data set [2] and in data set [5] was over 50 µM in each case. In addition, the “Hemolysis at 100 μM” value in data set [3] is on record as 1.8%. The “Plasmastability human pl. T1/2” value in data set [4] (human, plasma) came out at 4 h. Besides, the IC50 in data set [6] was determined as 1.1 ± 0.6 nM.

For `C[C@@H]1NC(=O)[C@H](CO)NC(=O)[C@@H]2CSSC[C@H](NC(=O)[C@H](Cc3ccc(O)cc3)NC(=O)[C@H](CCCNC(=N)N)NC(=O)[C@H](CCN)NC(=O)[C@@H](Cc3ccc(O)cc3)NC1=O)C(=O)N[C@@H](Cc1ccc(O)cc1)C(=O)N[C@@H](CCC(N)=O)C(=O)N[C@@H](CCCCN)C(=O)N(C)[C@H](C)C(=O)N1CCC[C@H]1C(=O)N[C@@H](Cc1ccc(O)cc1)C(=O)N[C@@H](Cc1c[nH]cn1)C(=O)N[C@@H](C)C(=O)N2` [compound 12], the “Plasmastability mouse pl. T1/2” value in data set [1] (setting [7]) was determined as 4 h. Further, the GI50 in data set [2] (African green monkey) and in data set [5] (human) was over 50 µM in each case. Besides, the “Hemolysis at 100 μM” value in data set [3] came to 0.9%. Also, the “Plasmastability human pl. T1/2” value in data set [4] (setting [8]) is 4 h. Besides, the 50% inhibitory concentration (IC50) in data set [6] was 0.1 ± 0.02 nM.

In the case of `C[C@@H]1NC(=O)[C@H](Cc2c[nH]cn2)NC(=O)[C@H](Cc2ccc(O)cc2)NC(=O)[C@@H]2CCCN2C(=O)[C@@H](Cc2ccncc2)NC(=O)[C@H](CCCCN)NC(=O)[C@H](CCC(N)=O)NC(=O)[C@H](Cc2ccc(O)cc2)NC(=O)[C@@H]2CSSC[C@H](NC1=O)C(=O)N[C@@H](CO)C(=O)N[C@@H](C)C(=O)N1CCC[C@@H]1C(=O)N[C@@H](CCN)C(=O)N[C@@H](CCCNC(=N)N)C(=O)N[C@@H](Cc1ccc(O)cc1)C(=O)N2` [compound 6], the “Plasmastability mouse pl. T1/2” value in data set [1] (setting [7]) amounted to 4 h. In addition, the GI50 in data set [2] (African green monkey) and in data set [5] (human) was over 50 µM throughout. Further, the “Hemolysis at 100 μM” value in data set [3] is reported as 2.4%. For the same compound, in data set [4] (setting [8]), the “Plasmastability human pl. T1/2” value was determined as 4 h. Further, in data set [6], the IC50 is 0.17 ± 0.1 nM.

With `CC[C@@H](C)[C@@H]1C(=O)N2CCC[C@H]2C(=O)N[C@@H](Cc2ccc(O)cc2)C(=O)N[C@@H](Cc2c[nH]cn2)C(=O)N[C@@H](C)C(=O)N[C@H]2CSSC[C@H](NC(=O)[C@H](Cc3ccc(O)cc3)NC(=O)[C@H](CCCNC(=N)N)NC(=O)[C@H](CCN)NC(=O)[C@H]3CCCN3C(=O)[C@H](C)NC(=O)[C@H](CO)NC2=O)C(=O)N[C@@H](Cc2ccc(O)cc2)C(=O)N[C@@H](CCC(N)=O)C(=O)N[C@@H](CCCCN)C(=O)N1C` [compound 2], the “Plasmastability mouse pl. T1/2” value in data set [1] (setting [7]) was 4 h. Also, the GI50 in data set [2] (African green monkey) and in data set [5] (human) was over 50 µM in each case. In addition, in data set [3], the “Hemolysis at 100 μM” value was 0.6%. Besides, in data set [4] (setting [8]), the “Plasmastability human pl. T1/2” value was found to be 4 h. Moreover, the IC50 in data set [6] was determined as 1.22 ± 1 nM.

As for `CC[C@@H](C)[C@H]1NC(=O)[C@H](CCCCN)NC(=O)[C@H](CCC(N)=O)NC(=O)[C@H](Cc2ccc(O)cc2)NC(=O)[C@@H]2CSSC[C@H](NC(=O)[C@H](C)NC(=O)[C@H](Cc3c[nH]cn3)NC(=O)[C@H](Cc3ccc(O)cc3)NC(=O)[C@@H]3CCCN3C1=O)C(=O)N[C@@H](CO)C(=O)N[C@@H](C)C(=O)N[C@H](Cc1c[nH]c3ccccc13)C(=O)N[C@@H](CCN)C(=O)N[C@@H](CCCNC(=N)N)C(=O)N[C@@H](Cc1ccc(O)cc1)C(=O)N2` [compound 11], in data set [1] (setting [7]), the “Plasmastability mouse pl. T1/2” value was determined as 4 h. In addition, the GI50 in data set [2] (African green monkey) and in data set [5] (human) was over 50 µM in each case. The “Hemolysis at 100 μM” value in data set [3] is recorded as 1.7%. Moreover, the “Plasmastability human pl. T1/2” value in data set [4] (setting [8]) came out at 4 h. Also, in data set [6], the IC50 worked out at 0.17 ± 0.02 nM.

On to `C[C@@H]1NC(=O)[C@H](Cc2c[nH]cn2)NC(=O)[C@H](Cc2ccc(O)cc2)NC(=O)[C@@H]2CCCN2C(=O)[C@@H](Cc2ccc(O)cc2)N(C)C(=O)[C@H](CCCCN)NC(=O)[C@H](CCC(N)=O)NC(=O)[C@H](Cc2ccc(O)cc2)NC(=O)[C@@H]2CSSC[C@H](NC1=O)C(=O)N[C@@H](CO)C(=O)N[C@@H](C)C(=O)N1CCC[C@@H]1C(=O)N[C@@H](CCN)C(=O)N[C@@H](CCCNC(=N)N)C(=O)N[C@@H](Cc1ccc(O)cc1)C(=O)N2` [compound 7], for which, in data set [1] (setting [7]), the “Plasmastability mouse pl. T1/2” value came to 4 h. The GI50 in data set [2] (African green monkey) and in data set [5] (human) was over 50 µM each time. Further, in data set [3], the “Hemolysis at 100 μM” value stood at 0.6%. In addition, the “Plasmastability human pl. T1/2” value in data set [4] (setting [8]) turned out to be 4 h. For the same compound, the IC50 in data set [6] stood at 0.33 ± 0.1 nM.
